Results published in US20040092575A1, “Use of certain substituted pyrrolidones such as piracetam in the treatment of viral and other diseases” (priority 2001, published 2004).

How the values were obtained:
acute viral hepatitis = experiment: Effect of piracetam on patients exhibiting acute viral hepatitis; assay type: in vivo
Procedure: 110 patients with acute hepatitis, hospitalised from the first or the second week of icterus, were included in the study. All patients were assigned to rest, and received diet and vitamins.
A first group received piracetam at a daily dose of 2.4 g (3×0.8 g/day), a second group received no piracetam and acted as control group. The main parameters were serum bilirubine and transaminases, measured once a week during the whole icterus period.
Inclusion criteria were bilirubine ([…]) (N<0.3) and transaminases (>400 U) (N<40).
The criteria for a positive response were bilirubine <1.5 mg/dl and transaminases <100 U.

hepatitis C virus (HCV) = experiment: Effect of piracetam on patients exhibiting chronic C virus hepatitis; assay type: in vivo
Text: 6 patients with chronic transfusion associated hepatitis C virus (HCV) received 6 months therapy with piracetam at a daily dose of 10.8 g (3×3.6 g/d) with no other treatment associated. This was followed by a 3 months period of no treatment. All patients, interferon non-responders, had chronic hepatitis from 6 to 19 years. The main criterion of efficacy was serum viral load (HCV-RNA) performed by polymerase chain reaction (PCR) at 0, 3, 6 and 9 months. These patients had manifested a gradual rise in their HCV-RNA. Thus, the criteria for no response was defined as no change in the increase of HCV-RNA, a positive response as a status quo of serum HVC-RNA and a significant response as a decrease of at least half a log of HCV-RNA.

[1] = system: A-201 cells devoid of CD4 receptors; experiment: formation of syncitia by fusion of infected cells with uninfected neighbouring cells, A-201 cells; assay type: cell-based, HIV; settings: no CD4 receptor, accordingly to the doses used
Text: (§1) HV has the property on cultured cells to provoke the formation of syncitia by fusion of infected cells with uninfected neighboring cells, when the virus ends its replication.
(§2) Virus have become remarkably opportunistic in exploring whatever complicated shapes they may find on the host cell surface as binding receptors (e.g. CD4, CXCR4, CCR5, CKR-5, CKR-3).
(§3) This study therefore investigated the ability of piracetam to inhibit the formation of syncitia, […], the primary binding receptor of HIV. For this purpose, two cultures of cells were used, A-201 cells devoid of CD4 receptors and SUP-Ti cells presenting CD4 receptors.

[2] = system: SUP-Ti cells presenting CD4 receptors; experiment: formation of syncitia by fusion of infected cells with uninfected neighbouring cells, SUP-Ti cells; assay type: cell-based, HIV; settings: CD4 receptor present, accordingly to the doses used
Text: as §1, §2, §3

[3] = biological target: T1, titled peptide of HUV-wt (wild type)(16 AA) (Human immunodeficiency virus type 1 group M subtype B, UniProt P04578); experiment: fusion of large unilamellar vesicles (LUV) provoked by tilted peptide of HUV-wt; design: species or system HIV; settings: at the doses tested
T1 construct: titled peptide of HUV-wt (wild type)(16 AA)

[4] = biological target: titled peptide of SIV-wt (12AA) (Simian immunodeficiency virus, UniProt P05885); experiment: fusion of large unilamellar vesicles (LUV) provoked by tilted peptide of SIV-wt; settings: at the doses tested
[5] = biological target: T2, Alzheimer's β-amyloid tilted peptide 29-40 (Homo sapiens, UniProt P05067); experiment: fusion process induced by Alzheimer's β-amyloid tilted peptide 29-40 on membrane models; settings: amyloid peptide 29-40
T2 construct: two Alzheimer's β-amyloid tilted peptides (29-40 and 29-42) on membrane models
Procedure: (§4) Four fundamental studies using different tools such as conformational analysis, biophysical methods, NMR and two-hybrid assay were carried out.

[6] = biological target: T3, Alzheimer's β-amyloid tilted peptide 29-42 (Homo sapiens, UniProt P05067); experiment: fusion process induced by Alzheimer's β-amyloid tilted peptide 29-42 on membrane models; settings: amyloid peptide 29-42
T3 construct: two Alzheimer's β-amyloid tilted peptides (29-40 and 29-42) on membrane models
Procedure: as §4

[7] = system: herpes simplex virus 1 (HSV1); settings: Vero cells culture, in vitro; cited from earlier work
viral tilted peptide = experiment: fusion process induced on LUV by the viral tilted peptide (analogues); settings: at the doses tested
Text: The same in vitro study as in Example 1 was used to investigate two analogues (levetiracetam and (R)-(−)-alpha-ethyl-2-oxo-1-pyrrolidine acetamide) in comparison with piracetam.

[8] = patients receiving piracetam from the first week of icterus
[9] = piracetam introduced after incubation of peptide with liposomes, whatever the dose
[10] = preincubation of piracetam before addition of the peptide

SMILES: NC(=O)CN1CCCC1=O [piracetam, 2-oxo-pyrrolidineacetamide]
- Clinical tolerance (acute viral hepatitis; acute hepatitis patients, 2.4 g daily (3×0.8 g/day)): excellent
- reduction of the icterus phase (acute viral hepatitis; compared to the control group, except for 6 patients out of 49): 50%
- evolution in serum bilirubine levels (acute viral hepatitis; [8]): positive evolution was especially observed
- evolution in serum transaminases (acute viral hepatitis; [8]): more pronounced
- bilirubine levels (acute viral hepatitis; patients receiving piracetam from the second week of icterus): not significantly reduced
- evolution in serum transaminases (acute viral hepatitis; patients receiving piracetam, 2.4 g daily): favourable, although non-significant
- evolution in serum bilirubine levels (acute viral hepatitis; piracetam group vs control group, 2.4 g daily, p<0.0003): very highly significantly reduced
- Clinical tolerance (hepatitis C virus (HCV); chronic HCV patients, 10.8 g daily (3×3.6 g/d), 6 months): excellent
- change of serum HCV-RNA (hepatitis C virus (HCV); four of 6 patients, PCR, 10.8 g daily): decrease
- decrease of serum HCV-RNA (hepatitis C virus (HCV); the patient most recently infected (6 years), significant): < 0.6 log
- increase of serum HCV-RNA (hepatitis C virus (HCV); two of 6 patients, PCR, 10.8 g daily): < 10%
- inhibition of the formation of syncitia [1]: inhibited
- inhibition of the formation of syncitia [2]: inhibited
- inhibition of the fusion of LUV [3]: inhibits the fusion of LUV
- inhibition of the fusion of LUV [4]: inhibits the fusion of LUV
- inhibition of the fusion process on membrane models ([5]; four studies overall): inhibit the fusion process
- inhibition of the fusion process [5, 9]: not able to inhibit
- inhibition of the fusion process [5, 10]: inhibits almost completely
- inhibition of the fusion process on membrane models ([6]; four studies overall): inhibit the fusion process
- inhibition of the fusion process [6, 9]: not able to inhibit
- inhibition of the fusion process [6, 10]: inhibits almost completely
- ability to stop the replication of HSV1 [7]: stop the replication

SMILES: CC[C@H](C(N)=O)N1CCCC1=O [(R)-(−) alpha-ethyl-2-oxo-1-pyrrolidineacetamide]
- inhibitory effect on the fusion process induced on LUV (viral tilted peptide): very clear inhibitory effect

SMILES: CC[C@@H](C(N)=O)N1CCCC1=O [levetiracetam, (S)-α-ethyl-2-oxo-1-pyrrolidineacetamide]
- inhibitory effect on the fusion process induced on LUV (viral tilted peptide): very clear inhibitory effect
